Measured values from patent publication US11236110B2 (priority 2017, dated 2022).

Assays:
[1] = Preliminary miscibility assays on the free base in selected solvents; type: physicochemical; details: for Miscibility: number of volumes needed to dissolve the oil at room temperature
Excerpt: Preliminary Miscibility Assays on (R)-9-(2,5-difluorophenethyl)-4-ethyl-2-methyl-1-oxa-4,9-diazaspiro[5.5]undecan-3-One Free Base

[2] = acidic counter-ion; cited from earlier work

CCN1CC2(CCN(CCc3cc(F)ccc3F)CC2)O[C@H](C)C1=O [(R)-9-(2,5-difluorophenethyl)-4-ethyl-2-methyl-1-oxa-4,9-diazaspiro[5.5]undecan-3-one]
miscibility of the oil with the solvents tested ([1]; room temperature, all the solvents tested (Table 2)): freely miscible
Miscibility ([1]; solvent H2O): 10 V
Miscibility ([1]; solvent IPA (isopropanol)): 10 V
Miscibility ([1]; solvent MIK (methyl isobutyl ketone)): 10 V
Miscibility ([1]; solvent THF (tetrahydrofuran)): 10 V
Miscibility ([1]; solvent Toluene): 10 V

O=C(O)[C@@H](O)c1ccccc1 [(S)-(+)-Mandelic acid]
pKa1 [2]: 3.4

Br [Hydrobromic acid]
pKa1 [2]: −6

O=[N+]([O-])O [Nitric acid]
pKa1 [2]: −1.4
